The test concerns P388 leukemia ip, CD2F1 mice, survival T/C. As to the kind of experiment: NCI In Vivo Anticancer Drug Screen. Data for tumor model P388 Leukemia (intraperitoneal) in CD2F1 (CDF1) mice. The note with it: endpoint: median survival time, higher = longer survival. An outline of the steps: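 Mice carrying the transplanted tumor received test compound or vehicle. Survival was recorded in each group, and the value is the treated-group measurement divided by that of the vehicle-treated control group.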

Setting [1] is: dose: 60.0 mg/kg/injection, schedule: Q01DX005 (ip), vehicle: saline with Tween-80.
[2] abbreviates: dose: 120.0 mg/kg/injection, schedule: Q01DX005 (ip), vehicle: saline with Tween-80.
Where [3] appears, read: dose: 240.0 mg/kg/injection, schedule: Q01DX005 (ip), vehicle: saline with Tween-80.
[4] abbreviates: dose: 60.0 mg/kg/injection, schedule: Q01DX005 (ip), vehicle: Klucel (hydroxypropylcellulose) (HPC).
Setting [5] is: dose: 240.0 mg/kg/injection, schedule: Q01DX005 (ip), vehicle: Klucel (hydroxypropylcellulose) (HPC).
The mark [6] stands for this setting: dose: 50.0 mg/kg/injection, schedule: Q01DX005 (ip), vehicle: Klucel (hydroxypropylcellulose) (HPC).
Setting [7] is: dose: 100.0 mg/kg/injection, schedule: Q01DX005 (ip), vehicle: Klucel (hydroxypropylcellulose) (HPC).
[8] abbreviates: dose: 200.0 mg/kg/injection, schedule: Q01DX005 (ip), vehicle: Klucel (hydroxypropylcellulose) (HPC).
Where [9] appears, read: dose: 120.0 mg/kg/injection, schedule: Q01DX005 (ip), vehicle: Klucel (hydroxypropylcellulose) (HPC).
[10] abbreviates: dose: 50.0 mg/kg/injection, schedule: Q01DX005 (ip), vehicle: saline with Tween-80.
The mark [11] stands for this setting: dose: 100.0 mg/kg/injection, schedule: Q01DX005 (ip), vehicle: saline with Tween-80.
Setting [12] is: dose: 200.0 mg/kg/injection, schedule: Q01DX005 (ip), vehicle: saline with Tween-80.
Where [13] appears, read: dose: 50.0 mg/kg/injection, schedule: Q01DX009 (ip), vehicle: saline with Tween-80.
The mark [14] stands for this setting: dose: 100.0 mg/kg/injection, schedule: Q01DX009 (ip), vehicle: saline with Tween-80.

Where “and” joins values, the source holds several entries; their conditions need not be identical. Equal values may be shown once. Toxic doses and inconclusive results are not listed.

Turning to `COC(C(=O)C(O)C(C)O)C1CC2C=C3C=C(OC4CC(OC5CC(O)C(OC)C(C)O5)C(OC(C)=O)C(C)O4)C(C)C(=O)C3=C(O)C2=C(O)C1OC1CC(OC2CC(OC3CC(C)(O)C(OC(=O)C(C)C)C(C)O3)C(O)C(C)O2)C(O)C(C)O1` (stereo not drawn), the T/C is, setting by setting: (dose: 1.0 micrograms/kg/injection, schedule: Q01DX010 (ip), vehicle: saline) 150 % of control; (dose: 4.0 micrograms/kg/injection, schedule: Q01DX010 (ip), vehicle: saline) 165 % of control; (dose: 8.0 micrograms/kg/injection, schedule: Q01DX010 (ip), vehicle: saline) 175 % of control; (dose: 16.0 micrograms/kg/injection, schedule: Q01DX010 (ip), vehicle: saline) 155 % of control.
On to `N#Cc1c2c(c(=O)n3c1[nH]c1ccccc13)CCC2`, for which the T/C runs as follows: under setting [1], 100 % of control; under setting [2], 93 % of control; under setting [3], 94 % of control.
`Cn1c2cc([N+](=O)[O-])ccc2c(=O)c2c(O)cc3c(c21)C=CC(C)(C)O3`: the T/C is, setting by setting: (dose: 100.0 mg/kg/injection, schedule: Q01DX001 (ip), vehicle: saline with Tween-80) 100 % of control; (dose: 200.0 mg/kg/injection, schedule: Q01DX001 (ip), vehicle: saline with Tween-80) 103 % of control.
In the case of `CC(=O)Oc1cc(OC(C)=O)c2c(c1)C(=O)c1cc(C)cc(OC(C)=O)c1C2=O`, the T/C (dose: 100.0 mg/kg/injection, schedule: Q04DX002 (ip), vehicle: saline with Tween-80) was 90 % of control and 96 % of control; the T/C (dose: 200.0 mg/kg/injection, schedule: Q04DX002 (ip), vehicle: saline with Tween-80) was 90 % of control; the T/C (dose: 400.0 mg/kg/injection, schedule: Q04DX002 (ip), vehicle: saline with Tween-80) is 90 % of control.
Regarding `CCOC(=O)c1ccc(NC(=O)Nc2ccccc2OC)cc1`, the T/C reads like this: (dose: 3.75 mg/kg/injection, schedule: Q01DX005 (ip), vehicle: Klucel (hydroxypropylcellulose) (HPC)) 94 % of control; (dose: 7.5 mg/kg/injection, schedule: Q01DX005 (ip), vehicle: Klucel (hydroxypropylcellulose) (HPC)) 97 % of control; (dose: 15.0 mg/kg/injection, schedule: Q01DX005 (ip), vehicle: Klucel (hydroxypropylcellulose) (HPC)) 92 % of control; under setting [4], 88 % of control; under setting [5], 86 % of control.
With `CN1C(=O)/C(=C2\SC(=O)N(CN3CCOCC3)C2=O)c2ccccc21`, the T/C runs as follows: under setting [6], 106 % of control; under setting [7], 99 % of control; under setting [8], 104 % of control.
`Cc1nc2ccccc2c(=O)n1/N=C\c1ccc2c(c1)CCC2`: the T/C under setting [4] is 97 % of control, the T/C under setting [9] is 104 % of control and the T/C under setting [5] was 95 % of control.
For `CNN(C)P(=S)(Oc1ccccc1)N(C)NC`, the T/C under setting [10] was 101 % of control, the T/C under setting [11] was 103 % of control and the T/C under setting [12] was 102 % of control.
On to `CC1N(C)c2cc([N+](=O)[O-])ccc2C1(C)C` (stereo not drawn), for which the T/C under setting [10] is 95 % of control, the T/C under setting [11] is 100 % of control and the T/C under setting [12] was 87 % of control.
Regarding `C(=C\c1csnn1)/c1ccc(/C=C/c2csnn2)cc1`, the T/C runs as follows: under setting [1], 100 % of control; under setting [2], 100 % of control; under setting [3], 100 % of control.
Regarding `COc1c(Br)cc(Br)cc1/C=C/[N+](=O)[O-]`, the T/C under setting [13] was 123 % of control.
With `Oc1cc2c(cc1O)C(c1ccccc1)CNCC2` (stereo not drawn), the T/C is, setting by setting: (dose: 25.0 mg/kg/injection, schedule: Q01DX009 (ip), vehicle: saline with Tween-80) 103 % of control; under setting [13], 97 % of control; under setting [14], 104 % of control.
For the compound `Cc1c2cc[n+](C[n+]3ccc4c(C)c5[nH]c6ccccc6c5c(C)c4c3)cc2c(C)c2c1[nH]c1ccccc12`, the T/C runs as follows: (dose: 12.5 mg/kg/injection, schedule: Q04DX002 (ip), vehicle: DMSO) 107 % of control; (dose: 25.0 mg/kg/injection, schedule: Q04DX002 (ip), vehicle: DMSO) 111 % of control; (dose: 50.0 mg/kg/injection, schedule: Q04DX002 (ip), vehicle: DMSO) 115 % of control; (dose: 100.0 mg/kg/injection, schedule: Q04DX002 (ip), vehicle: DMSO) 121 % of control.
Turning to `CN(C)C(CS(=O)(=O)c1ccccc1)c1ccccc1` (stereo not drawn), the T/C runs as follows: under setting [4], 100 % of control; under setting [9], 91 % of control; under setting [5], 91 % of control.
Regarding `COC(=O)C(Cc1cnc[nH]1)NC(=O)C(Cc1c[nH]c2ccccc12)NC(=O)OC(C)(C)C` (stereo not drawn), the T/C is, setting by setting: (dose: 12.5 mg/kg/injection, schedule: Q01DX009 (ip), vehicle: other) 100 % of control; (dose: 25.0 mg/kg/injection, schedule: Q01DX009 (ip), vehicle: other) 96 % of control; (dose: 50.0 mg/kg/injection, schedule: Q01DX009 (ip), vehicle: other) 96 % of control; (dose: 100.0 mg/kg/injection, schedule: Q01DX009 (ip), vehicle: other) 95 % of control; (dose: 200.0 mg/kg/injection, schedule: Q01DX009 (ip), vehicle: other) 91 % of control.
With `CC1(CCc2ccc(N(CCCl)CCCl)cc2)NC(=O)NC1=O` (stereo not drawn), the T/C runs as follows: (dose: 3.13 mg/kg/injection, schedule: Q01DX009 (ip), vehicle: Klucel (hydroxypropylcellulose) (HPC)) 105 % of control; (dose: 6.25 mg/kg/injection, schedule: Q01DX009 (ip), vehicle: Klucel (hydroxypropylcellulose) (HPC)) 103 % of control; (dose: 12.5 mg/kg/injection, schedule: Q01DX009 (ip), vehicle: Klucel (hydroxypropylcellulose) (HPC)) 103 % of control; (dose: 50.0 mg/kg/injection, schedule: Q01DX009 (ip), vehicle: Klucel (hydroxypropylcellulose) (HPC)) 103 % of control.
As for `CN(NC(=O)C(=O)NCc1ccco1)C(=O)Nc1ccccc1`, the T/C under setting [6] was 100 % of control, the T/C under setting [7] is 99 % of control and the T/C under setting [8] is 99 % of control.
Consider `O=C1CC2C3Nc4ccccc4C3CCN2C2=C1CC(OC(=O)c1ccccc1)CC2` (stereo not drawn), for which the T/C runs as follows: (dose: 100.0 mg/kg/injection, schedule: Q04DX003 (ip), vehicle: saline sonified) 100 % of control; (dose: 200.0 mg/kg/injection, schedule: Q04DX003 (ip), vehicle: saline sonified) 100 % of control; (dose: 400.0 mg/kg/injection, schedule: Q04DX003 (ip), vehicle: saline sonified) 95 % of control.
Regarding `CCC(C)n1c(C)nc2c(N)cc(C(F)(F)F)cc21` (stereo not drawn), the T/C runs as follows: under setting [10], 97 % of control; under setting [11], 91 % of control; under setting [12], 102 % of control.
`COC(=O)C(C(=O)OC)C(CC(=O)c1ccccc1)c1ccccc1` (stereo not drawn): the T/C under setting [13] was 109 % of control; the T/C under setting [14] was 103 % of control; the T/C (dose: 200.0 mg/kg/injection, schedule: Q01DX009 (ip), vehicle: saline with Tween-80) was 103 % of control.
Turning to `O=S(=O)(Nc1ncccn1)c1ccc(NCc2c3ccccc3nc3ccccc23)cc1`, the T/C by setting is: (dose: 12.5 mg/kg/injection, schedule: Q04DX002 (ip), vehicle: Klucel (hydroxypropylcellulose) (HPC)) 96 % of control; (dose: 25.0 mg/kg/injection, schedule: Q04DX002 (ip), vehicle: Klucel (hydroxypropylcellulose) (HPC)) 99 % of control; (dose: 50.0 mg/kg/injection, schedule: Q04DX002 (ip), vehicle: Klucel (hydroxypropylcellulose) (HPC)) 87 % of control and 96 % of control; (dose: 100.0 mg/kg/injection, schedule: Q04DX002 (ip), vehicle: Klucel (hydroxypropylcellulose) (HPC)) 87 % of control and 90 % of control; (dose: 200.0 mg/kg/injection, schedule: Q04DX002 (ip), vehicle: Klucel (hydroxypropylcellulose) (HPC)) 96 % of control; (dose: 400.0 mg/kg/injection, schedule: Q04DX002 (ip), vehicle: Klucel (hydroxypropylcellulose) (HPC)) 91 % of control and 96 % of control.
In the case of `O=C(CCl)c1ccc2c(c1)N(C(=O)COc1ccccc1)c1ccccc1S2`, the T/C by setting is: (dose: 50.0 mg/kg/injection, schedule: Q01DX001 (ip), vehicle: Klucel (hydroxypropylcellulose) (HPC)) 89 % of control; (dose: 100.0 mg/kg/injection, schedule: Q01DX001 (ip), vehicle: Klucel (hydroxypropylcellulose) (HPC)) 91 % of control; (dose: 200.0 mg/kg/injection, schedule: Q01DX001 (ip), vehicle: Klucel (hydroxypropylcellulose) (HPC)) 96 % of control.

Source of the values: PubChem BioAssay AID330 (DTP/NCI, 2004).
